Assay results reported in patent US20240216288A1, “LIPID NANOPARTICLES CONTAINING POLYNUCLEOTIDES ENCODING PROPIONYL-COA CARBOXYLASE ALPHA AND BETA SUBUNITS AND USES THEREOF” (ModernaTX, Inc., priority 2021, published 2024).

Assay: Residual parent lipid in mouse liver at 24 h (hEPO study)
Type: in vivo
Details: CD-1 mice

In the case of `CCCCCC(CCCCC)CCOC(=O)CCCCCCCN(CCO)CCCCCCCC(=O)OCCC(CCCCC)CCCCC` [compound 25], the “Parent Lipid Remaining (nmol/g liver tissue) at 24 h” value is reported as 0.1 0.04 nmol/g liver tissue.
